Test results reported in patent publication US7687512B2, “Use of pyridinyl-pyrimidinylamino-benzamide derivatives for the treatment of amyloid related disorders” (Novartis AG, priority 2003, dated 2010).

Tests used:
[1] = test system: Abeta secretion; conditions: HEK/APPswe cell cultures, at concentrations below 10 microM
Experimental: HEK/APPswe cells are plated in microtiter plates precoated with 10 μg/ml poly-D-lysine at 12,000 cells/well in 100 μl/well DMEM medium supplemented with 10% FCS, 0.25 mg/ml G418 sulfate, 1% penicillin streptomycin. The following day, supernatant is replaced with 90 μl/well of fresh medium and 10 μl/well of compound diluted in culture medium are added. Two types of control wells are used: cell culture medium without cells plus 10 μl/well of all compound dilutions (background signals) and cell culture medium from untreated cells (positive control). 24 hours later after compound addition, conditioned medium is collected and Aβ levels determined by a specific sandwich ELISA.
For the sandwich ELISA, the maxisorp microtiterplates are coated overnight at 4° C. with 100 μl/well of the monoclonal antibody 25H10 diluted 1:1000 in PB for Aβ40 detection or monoclonal antibody B10E7 diluted 1:2750 for detection of Aβ42. […] After 1 hour incubation at room temperature wells are washed as described above and alkaline phosphatase activity is determined by adding 100 μl/well of diethanolamine buffer, pH 9.8 (100 mM diethanolamine, 1 mM MgCl2, pH adjusted to 9.8 with 2 M HCl) containing the chemiluminescent CSPD substrate (25 mM stock solution diluted 1:416) and the enhancer Emerald II (diluted 1:10). […] Samples are measured in triplicate. […]

[2] = test system: HEK/APPswe cells; conditions: HEK/APPswe cell cultures, at concentrations below 10 microM
Experimental: To determine cytotoxicity, cells are tested by the MTS colorimetric kit performed essentially according to the manufacturer's specifications (Promega, #G5430X). After collecting the conditioned medium for the sandwich ELISA, the rest of the conditioned medium is removed completely and replaced with 100 μl/well culture medium containing one fifth of MTS solution prepared as recommended in the kit. After 3 hours incubation at 37° C., absorbance is read at an OD of 490 nm with a reference wavelength set to 630 nm. Values are given as % metabolic rate (n=6). The 0% value is calculated from wells which had no cells, 100% from wells with an untreated cell layer

SMILES: Cc1cn(-c2cc(NC(=O)c3ccc(C)c(Nc4nccc(-c5cccnc5)n4)c3)cc(C(F)(F)F)c2)cn1 [Example 2, 4-Methyl-N-[3-(4-methyl-imidazol-1-yl)-5-trifluoromethyl-phenyl]-3-(4-pyridin-3-yl-pyrimidin-2-ylamino)-benzamide]
- reduction of Abeta secretion in the medium [1]: clear reduction
- effect on cellular viability [2]: without having any effect
